Laboratory results as given in patent US11000033B2, “Ketone or oxime compound, and herbicide” (NISSAN CHEMICAL CORPORATION, priority 2014, dated 2021).

Assays:
Assay type in all cases: in vivo
Chenopodium album = assay: Test Example 4: herbicidal effect by soil treatment (symbol O); conditions: 320 g/ha
Method in brief: (§1)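 Seeds were sown in sterilized diluvial soil, covered with about 1.5 cm of soil, and the soil surface was sprayed with a water-diluted emulsion of the compound at a predetermined rate. Plants grew in a greenhouse at 25° C. to 30° C.; effects were scored visually 3 weeks after application.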

Galium spurium = assay: Test Example 4: herbicidal effect by soil treatment (symbol Q); conditions: 320 g/ha
Method in brief: as §1

[1] = tested on: Echinochloa crus-galli var. crus-galli; assay: Test Example 4: herbicidal effect by soil treatment (symbol H); conditions: 320 g/ha
Method in brief: as §1

Avena fatua = assay: Test Example 5: herbicidal effect by foliage application, plastic box (symbol I); conditions: 320 g/ha, 3 weeks after application
Method in brief: (§2)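 Effect is rated 3 weeks after a foliar spray of water-diluted emulsion concentrate at a predetermined herbicide amount. Plants had grown 14 days in a 25° C. to 30° C. greenhouse from seed in sterilized diluvial soil.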

corn = assay: Test Example 5: effect on crop by foliage application, plastic box (symbol c); conditions: 320 g/ha, 3 weeks after application
Method in brief: (§3)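 A greenhouse held between 25° C. and 30° C. was used to grow plants sown spot-wise, beneath ~1.5 cm of soil, in boxes of sterilized diluvial soil.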

Apera spica-venti = assay: Test Example 4: herbicidal effect by soil treatment (symbol L); conditions: 320 g/ha
Method in brief: as §1

transplanted rice plant = assay: Test Example 1: effect on crop, application before weed generation in submerged conditions (symbol a); conditions: application herbicide amount 320 g/ha
Method in brief: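 Alluvial soil pots flooded to 4 cm water, sown with Echinochloa oryzacola, Scirpus juncoides and Monochoria vaginalis, then transplanted with 2.5 leaf stage rice seedlings; pre-emergence application. Greenhouse 25° C. to 30° C.; scored 0–5 by herbicidal ratio 3 weeks after application.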

Abutilon theophrasti [2] = assay: Test Example 5: herbicidal effect by foliage application, plastic box (symbol M); conditions: 320 g/ha, 3 weeks after application
Method in brief: as §2

[3] = tested on: Echinochloa oryzacola Vasing.; assay: Test Example 1: herbicidal activity, application before weed generation in submerged conditions (symbol A); conditions: application herbicide amount 320 g/ha
Method in brief: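 Compound emulsion was diluted to a set herbicide amount and applied to the water surface on the sowing day, into submerged (4 cm) alluvial-soil pots sown with mixed weed seeds and transplanted 2.5-leaf rice. Pots were held in a 25–30 °C greenhouse, and weeds were scored 0–5 by herbicidal ratio after 3 weeks.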

[4] = tested on: directly sowed rice plant; assay: Test Example 3: effect on crop by foliage application, Wagner pot (symbol b); conditions: application herbicide amount 320 g/ha
Method in brief: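 Plants are raised from seed in flooded paddy conditions: water stands 0.1–0.5 cm over alluvial soil, and the pot is kept in a greenhouse at 25–30 °C. Species sown are barnyardgrass (E. crus-galli var. crus-galli), Leptochloa chinensis, Cyperus difformis and rice.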

Veronica persica = assay: Test Example 5: herbicidal effect by foliage application, plastic box (symbol R); conditions: 320 g/ha, 3 weeks after application
Method in brief: as §2

soybean [5] = assay: Test Example 4: effect on crop by soil treatment (symbol d); conditions: 320 g/ha
Method in brief: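 Crop seeds, among them rice, wheat, beet and rapeseed, were sown in sterilized diluvial soil and covered with about 1.5 cm of soil. Boxes were kept in a greenhouse at 25° C. to 30° C. for plant growth.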

Digitaria ciliaris = assay: Test Example 5: herbicidal effect by foliage application, plastic box (symbol F); conditions: 320 g/ha, 3 weeks after application
Method in brief: as §2

Abutilon theophrasti [6] = assay: Test Example 4: herbicidal effect by soil treatment (symbol M); conditions: 320 g/ha
Method in brief: as §1

soybean [7] = assay: Test Example 5: effect on crop by foliage application, plastic box (symbol d); conditions: 320 g/ha, 3 weeks after application
Method in brief: as §3

Structure (SMILES): CC(CC1CC(O)=C(c2c(C)cc(C)cc2C)C1=O)=NOCc1cccc(Cl)c1 (stereo not drawn) [1-114]
- O: Chenopodium album, herbicidal effect grade (Chenopodium album): 0 (Herbicidal ratio of 5% or lower (almost no effect))
- Q: Galium spurium, herbicidal effect grade (Galium spurium): 0 (Herbicidal ratio of 5% or lower (almost no effect))
- H: Echinochloa crus-galli var. crus-galli, herbicidal effect grade [1]: 0 (Herbicidal ratio of 5% or lower (almost no effect))
- I: Avena fatua, herbicidal effect (criteria 0-5) (Avena fatua): 5 (Herbicidal ratio of 90% or more (almost completely withered))
- c: corn, effect on crop (criteria 0-5) (corn): 1 (Herbicidal ratio of 5% or higher and lower than 20%)
- L: Apera spica-venti, herbicidal effect grade (Apera spica-venti): 5 (Herbicidal ratio of 90% or more (almost completely withered))
- Effect grade on crop, a: transplanted rice plant (transplanted rice plant): 5 (Herbicidal ratio of 90% or more (almost completely withered))
- M: Abutilon theophrasti, herbicidal effect (criteria 0-5) (Abutilon theophrasti [2]): 1 (Herbicidal ratio of 5% or higher and lower than 20%)
- Herbicidal effect grade, A: Echinochloa oryzacola Vasing. [3]: 5 (Herbicidal ratio of 90% or more (almost completely withered))
- effect on crop b (directly sowed rice plant), grade 0-5 [4]: 5 (Herbicidal ratio of 90% or more (almost completely withered))
- R: Veronica persica, herbicidal effect (criteria 0-5) (Veronica persica): 2 (Herbicidal ratio of 20% or higher and lower than 40%)
- d: soybean, effect grade on crop (soybean [5]): 0 (Herbicidal ratio of 5% or lower (almost no effect))
- F: Digitaria ciliaris, herbicidal effect (criteria 0-5) (Digitaria ciliaris): 5 (Herbicidal ratio of 90% or more (almost completely withered))
- M: Abutilon theophrasti, herbicidal effect grade (Abutilon theophrasti [6]): 0 (Herbicidal ratio of 5% or lower (almost no effect))
- d: soybean, effect on crop (criteria 0-5) (soybean [7]): 0 (Herbicidal ratio of 5% or lower (almost no effect))

Structure (SMILES): CC(CC1CC(O)=C(c2c(C)cc(C)cc2C)C1=O)=NOCc1ccccc1C(F)(F)F (stereo not drawn) [1-116]
- O: Chenopodium album, herbicidal effect grade (Chenopodium album): 0 (Herbicidal ratio of 5% or lower (almost no effect))
- Q: Galium spurium, herbicidal effect grade (Galium spurium): 0 (Herbicidal ratio of 5% or lower (almost no effect))
- H: Echinochloa crus-galli var. crus-galli, herbicidal effect grade [1]: 3 (Herbicidal ratio of 40% or higher and lower than 70%)
- I: Avena fatua, herbicidal effect (criteria 0-5) (Avena fatua): 4 (Herbicidal ratio of 70% or higher and lower than 90%)
- c: corn, effect on crop (criteria 0-5) (corn): 5 (Herbicidal ratio of 90% or more (almost completely withered))
- L: Apera spica-venti, herbicidal effect grade (Apera spica-venti): 3 (Herbicidal ratio of 40% or higher and lower than 70%)
- Effect grade on crop, a: transplanted rice plant (transplanted rice plant): 3 (Herbicidal ratio of 40% or higher and lower than 70%)
- M: Abutilon theophrasti, herbicidal effect (criteria 0-5) (Abutilon theophrasti [2]): 1 (Herbicidal ratio of 5% or higher and lower than 20%)
- Herbicidal effect grade, A: Echinochloa oryzacola Vasing. [3]: 5 (Herbicidal ratio of 90% or more (almost completely withered))
- effect on crop b (directly sowed rice plant), grade 0-5 [4]: 5 (Herbicidal ratio of 90% or more (almost completely withered))
- R: Veronica persica, herbicidal effect (criteria 0-5) (Veronica persica): 3 (Herbicidal ratio of 40% or higher and lower than 70%)
- d: soybean, effect grade on crop (soybean [5]): 0 (Herbicidal ratio of 5% or lower (almost no effect))
- F: Digitaria ciliaris, herbicidal effect (criteria 0-5) (Digitaria ciliaris): 5 (Herbicidal ratio of 90% or more (almost completely withered))
- M: Abutilon theophrasti, herbicidal effect grade (Abutilon theophrasti [6]): 2 (Herbicidal ratio of 20% or higher and lower than 40%)
- d: soybean, effect on crop (criteria 0-5) (soybean [7]): 3 (Herbicidal ratio of 40% or higher and lower than 70%)
